Measurements from publication PMC9610298, “Synthesis, Biological Evaluation and Machine Learning Prediction Model for Fluorinated Cinchona Alkaloid-Based Derivatives as Cholinesterase Inhibitors” (Pharmaceuticals, 2022).

What was measured:
purified human BChE [1] = target: T1, purified human BChE (Homo sapiens, UniProt P06276); conditions: earlier determined; cited from earlier work
recombinant human AChE = recombinant human AChE (Homo sapiens, UniProt P22303); assay: Reversible inhibition of AChE, Ellman method, enzyme-inhibitor dissociation constants; format: biochemical; conditions: ± standard error; ATCh substrate, 25 °C, pH 7.4
Chain of recombinant human AChE (P22303 32-614): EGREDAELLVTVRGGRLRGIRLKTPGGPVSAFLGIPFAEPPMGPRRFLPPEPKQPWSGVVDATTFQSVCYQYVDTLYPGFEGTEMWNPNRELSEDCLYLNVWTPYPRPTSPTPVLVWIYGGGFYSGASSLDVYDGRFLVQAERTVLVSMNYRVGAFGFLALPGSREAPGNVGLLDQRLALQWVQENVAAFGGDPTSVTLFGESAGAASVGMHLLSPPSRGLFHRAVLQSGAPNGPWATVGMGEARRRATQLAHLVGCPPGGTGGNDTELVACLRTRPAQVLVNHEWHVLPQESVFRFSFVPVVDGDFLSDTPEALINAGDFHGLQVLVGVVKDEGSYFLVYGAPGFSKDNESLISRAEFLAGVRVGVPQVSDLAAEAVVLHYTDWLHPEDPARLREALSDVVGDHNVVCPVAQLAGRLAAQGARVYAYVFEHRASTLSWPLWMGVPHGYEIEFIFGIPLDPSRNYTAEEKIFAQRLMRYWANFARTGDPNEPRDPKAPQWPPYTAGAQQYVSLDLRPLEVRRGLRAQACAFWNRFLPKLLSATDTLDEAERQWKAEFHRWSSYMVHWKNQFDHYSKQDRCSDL
Procedure: (§1) As a source of BChE, a purified human BChE, and as AChE, a recombinant human AChE was used, both enzymes kindly provided by Dr. F. Nachon (Département de Toxicologie, Armed Forces Biomedical Research Institute, France). The concentrated stocks of enzymes (BChE: 5.6 µM; AChE: 0.20 µM) were diluted in a phosphate sodium buffer 0.1 M (pH 7.4) containing 0.1% BSA before starting the experiments.
(§2) Enzyme activities were measured spectrophotometrically by the Ellman method at […] using 0.30 mM DTNB as thiol reagent, ATCh as substrate and water in 0.1 M phosphate buffer, pH 7.4. For the inhibition measurements, the reaction mixture contained tested compounds instead of water. […] Measurements were done at 25 °C on a Tecan Infinite M200Pro plate reader (Austria). A detailed description of measurement protocol was described previously.
(§3) The reversible inhibition of BChE and AChE by tested compounds was measured by determining the decrease of enzyme activity towards ATCh in their presence. The activities of the enzymes were measured at different substrate concentrations ([S]; 0.050–0.50 mM) in the absence (v0) and presence (vi) of the given tested compounds concentration ([I]; 0.050–200 µM, depending on the compound) selected to inhibit the enzymes for 20–80%. At least three concentrations of inhibitors for each substrate concentration were used in at least three experiments. The apparent dissociation inhibition constant (Ki,app) was calculated applying the Hunter-Downs equation and linear regression analysis (1):(1) Ki,app=vi/v0−vi⋅I=KI+KI/KS⋅S where y-intercept determines the enzyme-inhibitor dissociation constants (K(I)), while x-intercept determines the enzyme-substrate dissociation constant, K(S). The determination of kinetic constants was carried out using the GraphPadPrism 6.0 program (GraphPad Software, San Diego, CA, USA).

purified human BChE [2] = target: T1, purified human BChE; assay: Reversible inhibition of BChE, Ellman method, enzyme-inhibitor dissociation constants; format: biochemical; conditions: for SI, selective index Ki(AChE)/Ki(BChE): times higher preference for BChE over AChE
Procedure: as §1, §2, §3

[3] = ± standard error, ATCh substrate, 25 °C, pH 7.4

T1 sequence (P06276 29-602): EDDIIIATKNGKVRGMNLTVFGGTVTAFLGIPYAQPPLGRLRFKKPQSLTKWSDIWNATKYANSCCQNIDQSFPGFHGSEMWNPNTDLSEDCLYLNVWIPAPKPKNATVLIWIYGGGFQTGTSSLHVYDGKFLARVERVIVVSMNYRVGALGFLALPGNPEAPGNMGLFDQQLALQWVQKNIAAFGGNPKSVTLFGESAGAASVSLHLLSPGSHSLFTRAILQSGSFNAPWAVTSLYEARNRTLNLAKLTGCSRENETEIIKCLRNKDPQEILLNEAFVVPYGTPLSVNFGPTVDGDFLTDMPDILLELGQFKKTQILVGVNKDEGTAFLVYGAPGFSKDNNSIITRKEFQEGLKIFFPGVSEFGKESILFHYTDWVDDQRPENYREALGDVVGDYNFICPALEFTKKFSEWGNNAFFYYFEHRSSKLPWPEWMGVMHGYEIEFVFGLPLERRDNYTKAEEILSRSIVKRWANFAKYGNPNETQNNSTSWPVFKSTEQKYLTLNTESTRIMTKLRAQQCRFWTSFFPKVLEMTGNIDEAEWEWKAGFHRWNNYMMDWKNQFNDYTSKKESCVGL

SMILES	selectivity to BChE over AChE (times) (purified human BChE [1])	Ki (recombinant human AChE)	SI, selective index Ki(AChE)/Ki(BChE) (purified human BChE [2])	Ki (purified human BChE [2]; [3])	Ki (purified human BChE [2]; stated in text as around)
C=CC1C[N+]2(Cc3ccc(Br)cc3)CCC1CC2C(O)c1ccnc2ccccc12 (centres unmarked) [N-para-bromobenzyl CD derivative]	510	–	–	–	–
CCC1C[N+]2(Cc3ccc(OC(F)(F)F)cc3)CCC1C[C@@H]2[C@@H](O)c1ccnc2ccccc12 (some centres unmarked) [DHCN 4OCF3, N-(4-trifluoromethoxybenzyl)-10,11-dihydrocinchoninium bromide]	–	22 ± 1 µM	10	2.2 ± 0.1 µM	–
CCC1C[N+]2(Cc3ccc(C(F)(F)F)cc3)CCC1C[C@@H]2[C@@H](O)c1ccnc2ccccc12 (some centres unmarked) [DHCN 4CF3]	–	18 ± 1 µM	9	1.6 ± 0.1 µM	–
CCC1C[N+]2(Cc3cccc(OC(F)(F)F)c3)CCC1C[C@H]2[C@H](O)c1ccnc2ccccc12 (some centres unmarked) [DHCD 3OCF3, N-(3-trifluoromethoxybenzyl)-10,11-dihydrocinchonidinium bromide]	–	36 ± 1 µM	5	6.8 ± 0.3 µM	–
C=CC1C[N+]2(Cc3cc(F)cc(F)c3)CCC1C[C@@H]2[C@@H](O)c1ccnc2ccccc12 (some centres unmarked) [CN 3,5F]	–	34 ± 3 µM	5.4	6.3 ± 0.2 µM	–
C=CC1C[N+]2(Cc3ccc(Br)cc3F)CCC1C[C@@H]2[C@@H](O)c1ccnc2ccccc12 (some centres unmarked) [CN 2F-4Br, N-(2-fluoro-4-bromobenzyl)cinchoninium bromide]	–	16 ± 1 µM	2.9	5.5 ± 0.3 µM	–
CCC1C[N+]2(Cc3ccc(C(F)(F)F)cc3)CCC1C[C@H]2[C@H](O)c1ccnc2ccccc12 (some centres unmarked) [DHCD 4CF3]	–	15 ± 1 µM	5	3.2 ± 0.2 µM	–
C=CC1C[N+]2(Cc3cccc(C(F)(F)F)c3)CCC1C[C@H]2[C@H](O)c1ccnc2ccccc12 (some centres unmarked) [CD 3CF3]	–	34 ± 1 µM	14	2.4 ± 0.1 µM	–
CCC1C[N+]2(Cc3ccccc3)CCC1C[C@@H]2[C@@H](O)c1ccnc2ccccc12 (some centres unmarked) [DHCN Bzl]	–	21 ± 1 µM	23	0.9 ± 0.04 µM	–
C=CC1C[N+]2(Cc3cccc(F)c3)CCC1C[C@H]2[C@H](O)c1ccnc2ccccc12 (some centres unmarked) [CD 3F, N-(meta-fluorobenzyl)cinchonidinium bromide]	–	40 ± 2 µM	533	0.075 ± 0.005 µM	~0.076 µM
CCC1C[N+]2(Cc3cccc(C(F)(F)F)c3)CCC1C[C@@H]2[C@@H](O)c1ccnc2ccccc12 (some centres unmarked) [DHCN 3CF3]	–	41 ± 2 µM	34	1.2 ± 0.05 µM	–
